Measurements taken from patent US6350410B1, “Method and composition for inhibiting biological fouling in an irrigation system” (CH20 Incorporated, priority 1995, dated 2002).

Tested on: pond water supporting algal and protozoan life, inoculated with bacterium escherichia coli
Assay: Plate count test on pond water sample inoculated with escherichia coli
Type: cell-based
Details: for population (plate count): after five days, untreated sample 100 organisms per milliliter
Description: A sample of pond water was obtained. […] The pond water was inoculated with a large population of bacterium escherichia coli. A plate count test was run on the pond water sample to determine the population. […] Dilution was performed with pond water to yield a population that would register on a plate count test. One liter of the sample was removed and left untreated.
A second one liter portion was taken from the pond water sample. A composition of about 2% active zinc sulfate was mixed with the water sample to yield active zinc at about 0.1 ppm.
A third one liter portion was taken from the pond water sample. A composition of about 2% active zinc sulfate was mixed with the water sample to yield active zinc at about 10.0 ppm.
A fourth one liter portion was taken from the pond water sample. A zinc chelated product was prepared containing about 2% active zinc sulfate which was chelated on a 1:1 molar ratio with 1-hydroxyethane 1,1-diphosphonic acid (HEDPA). The chelated zinc product was added to the sample to yield chelated zinc at about 0.1 ppm.
A fifth one liter portion was taken from the pond water sample. A zinc chelated product was prepared containing about 2% active zinc sulfate which was chelated on a 1:1 molar ratio with HEDPA. The chelated zinc product was added to the sample to yield chelated zinc at about 10.0 ppm.

For O=S(=O)([O-])[O-].[Zn+2] [active zinc, zinc sulfate], the “population (plate count)” value (about 0.1 ppm in one liter pond water sample) was 1 organism per milliliter, the “population (plate count)” value (about 10.0 ppm in one liter pond water sample) was 6 organisms per milliliter and the “treatment of biological fouling (in words)” value (about 10.0 ppm, compared to the untreated sample) was “effective treatment”.
